Four molecules from US20070092551A1, “Therapeutic agent” (TAKARA BIO INC., priority 2003, published 2007) can be followed below.

Series [1] relates to type II diabetes model mice. Description: Suppressive effects on incidence of diabetes (blend feed). It is filed as in vivo, KK-Ay mice. The note with it: 0.15% blend feed; for Blood Glucose Level, Previous Day: male 5-week old KK-Ay mice, day before beginning of administration; for Blood Glucose Level, Previous Day / Amount of Drunk Water, Ninth to Fifteenth Day / Amount of Drunk Water, Second to Eighth Day / Blood Glucose Level, Fifteenth Day: mean ± standard error; for effects for suppressing the incidence of diabetes (in words) / changes in body weight, amount of feed taken and general symptoms / Amount of Drunk Water, Ninth to Fifteenth Day / Amount of Drunk Water, Second to Eighth Day / Blood Glucose Level, Fifteenth Day: male KK-Ay mice; for changes in body weight, amount of feed taken and general symptoms: experimental period. The protocol: The suppressive effects of xanthoangelol and 4-hydroxyderricin on incidence of diabetes were examined using type II diabetes model mice. Experiments were carried out with seven male 5-week old KK-Ay mice (CLEA Japan, Inc.) per group. Xanthoangelol and 4-hydroxyderricin were each mixed in a powder feed (CE-2: CLEA Japan, Inc.) so as to have a ratio of 0.15%, and the mice were fed with the blended power feed. The mice in the control group were fed with the powder feed (CE-2). On the day before the beginning of administration, and on the fifteenth day, the blood glucose level was determined in the same manner as in Example 88. In addition, as an index of the incidence of diabetes, amounts of drunk water from the second to eighth days and from the ninth to fifteenth days from the administration were determined, and an average amount of drunk water per day was calculated, respectively. By administration of a mixed feed with xanthoangelol or 4-hydroxyderricin, the suppression of increase in a blood glucose level was found. Further, the suppression of increase in the amount of drunk water which is an index of the incidence of diabetes was found. […] During the experimental period, no changes were found in body weight, amount of feed taken and general symptoms.

A short description of series [2]: Toxicity test, forcible oral administration for 3 consecutive days. Type of series: in vivo. The note with it: female ICR mice, 1 g/kg forcibly orally once a day for 3 days, in CMC or olive oil. The protocol: The influence of 4-hydroxyderricin and xanthoangelol by forcible oral administration for 3 consecutive days was examined using female 12-week old ICR mice (Japan SLC, Inc.). 4-Hydroxyderricin or xanthoangelol was suspended or dissolved in a 0.5% (w/v) carboxymethyl cellulose solution (CMC) or an olive oil so as to have a concentration of 20% (w/v). The suspension or solution was forcibly orally administered once a day for 3 days in an amount of 5 mL per 1 kg body weight (1 g/kg in terms of 4-hydroxyderricin or xanthoangelol). Three cases were used for each group.

In series [3] the test system is 3T3-L1 cells. Description: Induction of adipocyte differentiation (amount of triglyceride biosynthesis). The note with it: Mus musculus. It is filed as cell-based. An outline of the steps:
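Differentiation scored as X=(S−N)/(P−N), ranked +++, ++, +, +/−, where S, N and P are triglyceride with compound, DMSO and insulin; triglyceride was extracted with hexane:isopropanol (3:2) and assayed twice. Compound was added after 7 days' growth, first with 0.25 μM dexamethasone (45 h), then for 7 days.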

[4] abbreviates: 3T3-L1, read-out: Action for Induction of Differentiation.
Where [5] appears, read: 3T3-L1, X=(S−N)/(P−N) of amount of triglyceride, P=insulin positive control, read-out: Action for Induction of Differentiation.
Where [6] appears, read: 3T3-L1, 3 μM, X=(S−N)/(P−N) of amount of triglyceride, P=insulin positive control, read-out: Action for Induction of Differentiation.
Where [7] appears, read: 3T3-L1, 10 μM, X=(S−N)/(P−N) of amount of triglyceride, P=insulin positive control, read-out: Action for Induction of Differentiation.

Read-outs that look alike come from different tables or passages of the source.

Consider `COc1ccc(C(=O)/C=C/c2ccc(O)cc2)c(O)c1CC=C(C)C` [4-Hydroxyderricin, 4,2′-Dihydroxy-3′-prenyl-4′-methoxychalcone], for which, in series [1], the “Blood Glucose Level, Previous Day” value was found to be 226 ± 14 mg/dL; the “effects for suppressing the incidence of diabetes (in words)” value is listed as “effects for suppressing the incidence of diabetes was found”; the “changes in body weight, amount of feed taken and general symptoms” value was “no changes”; the “Amount of Drunk Water, Ninth to Fifteenth Day” value amounted to 10.0 ± 0.6 mL/day. Also, in series [1], the “Amount of Drunk Water, Second to Eighth Day” value is 7.6 ± 0.2 mL/day and the “Blood Glucose Level, Fifteenth Day” value amounted to 354 ± 24 mg/dL. Further, in series [2], the cases of death entry is recorded as “No cases of death” and the “change in general symptom” value was “no change”. In series [3] (setting [4]), the activation at 3 µM is 60 to 100% and the activation at 10 µM was over 100%.

With `COc1ccc(C(=O)/C=C/c2ccc(O)cc2)c(O)c1C/C=C(\C)CCC=C(C)C` [Xanthoangelol F, 4,2′-Dihydroxy-3′-geranyl-4′-methoxychalcone], the activation at 1 µM in series [3] (setting [5]) was 60 to 100%. Further, the activation at 3 µM in series [3] (setting [6]) was over 100%. For the same molecule, the activation at 10 µM in series [3] (setting [7]) was over 100%.

For `COc1ccc(C(=O)/C=C/c2ccc(O)cc2)c2c1CC(O)C(C)(C)O2` (stereo not drawn) [Xanthoangelol H], the activation at 1.3 µM in series [3] (3T3-L1, 1.3 μM, X=(S−N)/(P−N) of amount of triglyceride, P=insulin positive control, read-out: Action for Induction of Differentiation) was 30 to 60%. Also, the activation at 4 µM in series [3] (3T3-L1, 4 μM, X=(S−N)/(P−N) of amount of triglyceride, P=insulin positive control, read-out: Action for Induction of Differentiation) fell in the range of 60 to 100%. Besides, the activation at 13 µM in series [3] (3T3-L1, 13 μM, X=(S−N)/(P−N) of amount of triglyceride, P=insulin positive control, read-out: Action for Induction of Differentiation) was over 100%.

`CC(C)=CCC/C(C)=C/Cc1c(O)ccc(C(=O)/C=C/c2ccc(O)cc2)c1O` [Xanthoangelol, 4,2′,4′-Trihydroxy-3′-geranylchalcone]: in series [1], the “Blood Glucose Level, Previous Day” value is on record as 232 ± 11 mg/dL; the “effects for suppressing the incidence of diabetes (in words)” value is reported as “effects for suppressing the incidence of diabetes was found”; the “changes in body weight, amount of feed taken and general symptoms” value is reported as “no changes”; the “Amount of Drunk Water, Ninth to Fifteenth Day” value was determined as 14.6 ± 2.0 mL/day. Further, in series [1], the “Amount of Drunk Water, Second to Eighth Day” value was 10.3 ± 1.3 mL/day and the “Blood Glucose Level, Fifteenth Day” value worked out at 426 ± 39 mg/dL. Moreover, in series [2], the cases of death result is “No cases of death” and the “change in general symptom” value is reported as “no change”. The activation at 1 µM in series [3] (setting [5]) lay in the range of 15 to 30%. Moreover, the activation at 3 µM in series [3] (setting [6]) is 60 to 100%. Moreover, in series [3] (setting [7]), the activation at 10 µM was over 100%.
